Reference: patent US20230100429A1, “LIVE-PATHOGEN-MIMETIC NANOPARTICLES BASED ON PATHOGEN CELL WALL SKELETON, AND PRODUCTION METHOD THEREOF” (priority 2020, published 2023)

Experiment: Toxicity evaluation, plasma AST and ALT after subcutaneous injection
Type: in vivo, C57BL/6 mouse
Settings: 25 μg resiquimod, over time, FIG. 6
Protocol: To evaluate the toxicity of a live pathogen-mimetic nano-molecule, a live pathogen-mimetic nano-molecule, a CWS-nanodispersion, resiquimod (R848; free drug), or a mixture of a CWS-nanodispersion and resiquimod (R848; free drug), which was added to a 50 μL of phosphate buffered saline (PBS) to have a resiquimod concentration of 25 μg, was subcutaneously injected into the right flank of a C57BL/6 mouse. Then, blood was extracted from the mouse at fixed time intervals and centrifuged at 12,000 rpm to isolate plasma. Then, the concentrations of aspartate transaminase (AST) and alanine transaminase (ALT) contained in the isolated plasma were measured using ELISA.

CCOCc1nc2c(N)nc3ccccc3c2n1CC(C)(C)O [resiquimod]
plasma ALT concentration (hepatotoxicity indicator): initially increased
plasma AST concentration (hepatotoxicity indicator): initially increased
